Test results reported in US8846762B2, “Benzopyran and benzoxepin PI3K inhibitor compounds and methods of use” (Genentech, Inc., priority 2008, dated 2014).

Key:
[1] = Body weight change over the course of treatment in the xenograft study, as an indicator of safety; type: in vivo, Taconic nude mice; conditions: 50 and 100 mg/kg, orally daily for 21 days
pAkt (phospho-Akt) = experiment: phospho AKT induction assay; type: cell-based; conditions: in each study (Example 284); cells treated with an EC80 of the compound
Method: In a 6-well tissue culture plate cells were seeded at 5×10^5 cells per well overnight. […] Determination of protein concentration was performed using the Pierce BCA Protein Assay Kit (Rockford, Ill.). Levels of pAkt (Ser^473) and total Akt were assessed using bead kits from Biosource (Carlsbad, Calif.) and the Luminex Bio-Plex system (Bio-Rad, Hercules, Calif.).

CNC(=O)c1ccc2c(c1)OCCc1cc(C(=O)N(C)c3ccc(C(=O)N(C)C)cc3Cl)sc1-2 [Compound 223, N2-(2-chloro-4-(dimethylcarbamoyl)phenyl)-N2,N8-dimethyl-4,5-dihydrobenzo[b]thieno[2,3-d]oxepine-2,8-dicarboxamide]
body weights compared with the group administered Vehicle [1]: did not significantly differ | pAkt (phospho-Akt), a potential biomarker of PI3K signal transduction disruption (pAkt (phospho-Akt)): suppressed pAkt
